Source: US20240208992A1, “MACROCYCLES AS CFTR MODULATORS” (Idorsia Pharmaceuticals Ltd, priority 2021, published 2024)

Target: human F508del-CFTR (Homo sapiens, UniProt P13569, DEL508-508)
Assay: F508del-CFTR cell surface expression (corrector activity), DiscoveRx ß-galactosidase complementation chemiluminescence assay in recombinant U2OS cell line;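 note: U2OS cells co-expressing ProLink-tagged F508del-CFTR and a membrane-anchored enzyme acceptor, where more surface CFTR restores β-galactosidase activity measured by chemiluminescence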
Conditions: U2OS cell line, 16h compound incubation; for EC50: EC50, F508del-CFTR cell surface expression, geomean values; for Emax: U2OS, in relation to the Emax of the corrector lumacaftor (=100%), arithmetic mean values

human F508del-CFTR, sequence (P13569 with tags, fused parts or gaps DEL508-508): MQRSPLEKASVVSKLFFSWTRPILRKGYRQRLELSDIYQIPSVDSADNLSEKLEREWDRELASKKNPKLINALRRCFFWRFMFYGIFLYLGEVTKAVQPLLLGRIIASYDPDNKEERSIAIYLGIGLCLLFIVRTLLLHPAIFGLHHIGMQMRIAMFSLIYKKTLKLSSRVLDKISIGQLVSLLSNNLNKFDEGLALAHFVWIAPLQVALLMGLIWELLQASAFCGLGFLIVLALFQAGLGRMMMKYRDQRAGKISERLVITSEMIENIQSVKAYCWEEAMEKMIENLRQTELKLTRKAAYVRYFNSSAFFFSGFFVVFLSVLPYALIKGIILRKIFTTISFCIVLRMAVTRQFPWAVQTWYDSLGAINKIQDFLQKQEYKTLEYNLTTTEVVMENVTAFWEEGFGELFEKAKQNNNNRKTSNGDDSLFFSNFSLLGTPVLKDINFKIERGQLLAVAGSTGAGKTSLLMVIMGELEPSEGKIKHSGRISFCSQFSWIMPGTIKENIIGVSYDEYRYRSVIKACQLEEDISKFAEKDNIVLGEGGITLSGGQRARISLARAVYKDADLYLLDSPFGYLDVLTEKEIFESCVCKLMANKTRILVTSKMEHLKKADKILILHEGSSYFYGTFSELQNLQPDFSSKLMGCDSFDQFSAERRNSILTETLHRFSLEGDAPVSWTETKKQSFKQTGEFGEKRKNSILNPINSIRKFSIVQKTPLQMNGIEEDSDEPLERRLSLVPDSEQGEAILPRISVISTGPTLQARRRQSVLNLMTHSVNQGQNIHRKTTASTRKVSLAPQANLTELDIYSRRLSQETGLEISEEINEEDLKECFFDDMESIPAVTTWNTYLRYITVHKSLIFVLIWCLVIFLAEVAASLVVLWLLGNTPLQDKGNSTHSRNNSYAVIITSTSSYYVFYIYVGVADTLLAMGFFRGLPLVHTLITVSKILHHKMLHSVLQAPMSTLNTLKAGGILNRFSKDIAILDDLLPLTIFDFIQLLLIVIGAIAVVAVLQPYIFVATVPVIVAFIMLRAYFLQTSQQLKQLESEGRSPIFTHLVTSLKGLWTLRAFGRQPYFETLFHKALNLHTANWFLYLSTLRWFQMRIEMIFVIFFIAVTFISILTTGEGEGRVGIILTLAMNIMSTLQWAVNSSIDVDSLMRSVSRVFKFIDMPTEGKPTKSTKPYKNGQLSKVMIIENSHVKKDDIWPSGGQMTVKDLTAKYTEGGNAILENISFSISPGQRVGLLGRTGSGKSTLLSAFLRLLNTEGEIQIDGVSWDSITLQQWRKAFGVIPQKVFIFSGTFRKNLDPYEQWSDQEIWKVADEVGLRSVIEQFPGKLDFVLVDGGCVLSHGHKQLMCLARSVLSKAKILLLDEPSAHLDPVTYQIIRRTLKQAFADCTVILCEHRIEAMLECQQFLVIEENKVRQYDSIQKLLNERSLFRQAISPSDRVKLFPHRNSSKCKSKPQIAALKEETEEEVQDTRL

| Structure (SMILES) | EC50 [µM] | Emax [%] |
| --- | --- | --- |
| COc1cccc(CCNC(=O)[C@@H]2CC(=O)N(C)[C@@H](CC(C)C)C(=O)N(C)CC(=O)N[C@H](Cc3ccccc3)COc3cnc4ccccc4c3C(=O)N2)c1 [Example 319, (3S,7S,13R)-13-benzyl-7-isobutyl-N-(3-methoxyphenethyl)-6,9-dimethyl-1,5,8,11-tetraoxo-1,2,3,4,5,6,7,8,9,10,11,12,13,14-tetradecahydro-[1]oxa[4,7,10,14]tetraazacycloheptadecino[17,16-c]quinoline-3-carboxamide] | 0.574 | 296 |
| [2H]C([2H])([2H])Oc1cccc(CCNC(=O)[C@@H]2CC(=O)N(C)[C@@H](CC(C)C)C(=O)N(C)CC(=O)N[C@H](Cc3ccccc3)COc3cnc4ccccc4c3C(=O)N2)c1 [Example 320, (3S,7S,13R)-13-benzyl-7-isobutyl-N-(3-(methoxy-d3)phenethyl)-6,9-dimethyl-1,5,8,11-tetraoxo-1,2,3,4,5,6,7,8,9,10,11,12,13,14-tetradecahydro-[1]oxa[4,7,10,14]tetraazacycloheptadecino[17,16-c]quinoline-3-carboxamide] | 0.363 | 297 |
| CC(C)C[C@H]1C(=O)N(C)CC(=O)N[C@H](Cc2ccccc2)COc2ccc3c(c2C(=O)N[C@H](C(=O)NCCc2ccc4c(c2)OCO4)CC(=O)N1C)OCO3 [Example 321, (8R,14S,18S)-N-(2-(benzo[d][1,3]dioxol-5-yl)ethyl)-8-benzyl-14-isobutyl-12,15-dimethyl-10,13,16,20-tetraoxo-7,8,9,10,11,12,13,14,15,16,17,18,19,20-tetradecahydro-[1,3]dioxolo[4′,5′:5,6]benzo[1,2-p][1]oxa[4,7,10,14]tetraazacycloheptadecine-18-carboxamide] | 0.816 | 266 |
| [2H]C1([2H])Oc2ccc3c(c2O1)C(=O)N[C@H](C(=O)NCCc1ccc2c(c1)OCO2)CC(=O)N(C)[C@@H](CC(C)C)C(=O)N(C)CC(=O)N[C@H](Cc1ccccc1)CO3 [Example 322, (8R,14S,18S)-N-(2-(benzo[d][1,3]dioxol-5-yl)ethyl)-8-benzyl-14-isobutyl-12,15-dimethyl-10,13,16,20-tetraoxo-7,8,9,10,11,12,13,14,15,16,17,18,19,20-tetradecahydro-[1,3]dioxolo[4′,5′:5,6]benzo[1,2-p][1]oxa[4,7,10,14]tetraazacycloheptadecine-2,2-d2-18-carboxamide] | 0.504 | 197 |
| COc1cccc(CCNC(=O)[C@@H]2CC(=O)N(C)[C@@H](CC(C)C)C(=O)N(C)CC(=O)N[C@H](Cc3ccccc3)COc3ccc4c(c3C(=O)N2)OCO4)c1 [Example 323, (8R,14S,18S)-8-benzyl-14-isobutyl-N-(3-methoxyphenethyl)-12,15-dimethyl-10,13,16,20-tetraoxo-7,8,9,10,11,12,13,14,15,16,17,18,19,20-tetradecahydro-[1,3]dioxolo[4′,5′:5,6]benzo[1,2-p][1]oxa[4,7,10,14]tetraazacycloheptadecine-18-carboxamide] | 0.742 | 258 |
| [2H]C1([2H])Oc2ccc3c(c2O1)C(=O)N[C@H](C(=O)NCCc1cccc(OC)c1)CC(=O)N(C)[C@@H](CC(C)C)C(=O)N(C)CC(=O)N[C@H](Cc1ccccc1)CO3 [Example 324, (8R,14S,18S)-8-benzyl-14-isobutyl-N-(3-methoxyphenethyl)-12,15-dimethyl-10,13,16,20-tetraoxo-7,8,9,10,11,12,13,14,15,16,17,18,19,20-tetradecahydro-[1,3]dioxolo[4′,5′:5,6]benzo[1,2-p][1]oxa[4,7,10,14]tetraazacycloheptadecine-2,2-d2-18-carboxamide] | 0.666 | 247 |
| COc1cc(CCNC(=O)[C@@H]2CC(=O)N(C)[C@@H](CC(C)C)C(=O)N3CCOC[C@@H]3C(=O)N[C@H](Cc3ccccc3)COc3ccc4ccccc4c3C(=O)N2)cc(OC)c1 [Example 325, (4aR,7R,18S,22S)-7-benzyl-N-(3,5-dimethoxyphenethyl)-22-isobutyl-21-methyl-5,16,20,23-tetraoxo-1,2,4,4a,5,6,7,8,16,17,18,19,20,21,22,23-hexadecahydronaphtho[1,2-p][1,4]oxazino[3,4-f][1]oxa[4,7,10,14]tetraazacycloheptadecine-18-carboxamide] | 0.187 | 237 |
| CC(C)C[C@H]1C(=O)N2CCOC[C@@H]2C(=O)N[C@H](Cc2ccccc2)COc2ccc3ccccc3c2C(=O)N[C@H](C(=O)NCCc2ccc3c(c2)OCO3)CC(=O)N1C [Example 326, (4aR,7R,18S,22S)-N-(2-(benzo[d][1,3]dioxol-5-yl)ethyl)-7-benzyl-22-isobutyl-21-methyl-5,16,20,23-tetraoxo-1,2,4,4a,5,6,7,8,16,17,18,19,20,21,22,23-hexadecahydronaphtho[1,2-p][1,4]oxazino[3,4-f][1]oxa[4,7,10,14]tetraazacycloheptadecine-18-carboxamide] | 0.276 | 273 |
| CC(C)C[C@H]1C(=O)N2CCOC[C@@H]2C(=O)N[C@H](Cc2ccccc2)COc2ccc3ccccc3c2C(=O)N[C@H](C(=O)NCCc2nc3ccccc3o2)CC(=O)N1C [Example 327, (4aR,7R,18S,22S)-N-(2-(benzo[d]oxazol-2-yl)ethyl)-7-benzyl-22-isobutyl-21-methyl-5,16,20,23-tetraoxo-1,2,4,4a,5,6,7,8,16,17,18,19,20,21,22,23-hexadecahydronaphtho[1,2-p][1,4]oxazino[3,4-f][1]oxa[4,7,10,14]tetraazacycloheptadecine-18-carboxamide] | 0.461 | 225 |
| COc1cc(CCNC(=O)[C@@H]2CC(=O)N(C)[C@@H](CC(C)C)C(=O)N3CCCC[C@@H]3C(=O)N[C@H](Cc3ccccc3)COc3ccc4ncn(C)c4c3C(=O)N2)cc(OC)c1 [Example 328, (8S,12S,18aR,21R)-21-benzyl-N-(3,5-dimethoxyphenethyl)-12-isobutyl-5,11-dimethyl-6,10,13,19-tetraoxo-6,7,8,9,10,11,12,13,16,17,18,18a,19,20,21,22-hexadecahydro-5H,15H-imidazo[4′,5′:5,6]benzo[1,2-p]pyrido[2,1-f][1]oxa[4,7,10,14]tetraazacycloheptadecine-8-carboxamide] | 0.987 | 228 |
| CC(C)C[C@H]1C(=O)N2CCCC[C@@H]2C(=O)N[C@H](Cc2ccccc2)COc2ccc3ncn(C)c3c2C(=O)N[C@H](C(=O)NCCc2ccc3c(c2)OCO3)CC(=O)N1C [Example 329, (8S,12S,18aR,21R)-N-(2-(benzo[d][1,3]dioxol-5-yl)ethyl)-21-benzyl-12-isobutyl-5,11-dimethyl-6,10,13,19-tetraoxo-6,7,8,9,10,11,12,13,16,17,18,18a,19,20,21,22-hexadecahydro-5H,15H-imidazo[4′,5′:5,6]benzo[1,2-p]pyrido[2,1-f][1]oxa[4,7,10,14]tetraazacycloheptadecine-8-carboxamide] | 0.796 | 198 |
| CC(C)C[C@H]1C(=O)N(CCC2CC3CCC2O3)CC(=O)N[C@H](Cc2ccccc2)COc2ccc3ccccc3c2C(=O)N[C@H](C(=O)NCCc2ccc3c(c2)OCO3)CC(=O)N1C (stereo partly drawn) [Example 330, (3S,7S,13R)-9-(2-(7-oxabicyclo[2.2.1]heptan-2-yl)ethyl)-N-(2-(benzo[d][1,3]dioxol-5-yl)ethyl)-13-benzyl-7-isobutyl-6-methyl-1,5,8,11-tetraoxo-1,2,3,4,5,6,7,8,9,10,11,12,13,14-tetradecahydronaphtho[1,2-p][1]oxa[4,7,10,14]tetraazacycloheptadecine-3-carboxamide] | 0.418 | 138 |
